# Patent US20260325541A1, “BENZGALANTAMINE FOR TREATING PERSISTENT POST-CONCUSSION SYMPTOMS” (Alpha Cognition Inc., priority 2023, published 2026)
# Where a name gives a salt, the structure may show the parent alone.
# Legend:
# [1] = system: P. aeruginosa ATCC 9027; experiment: USP 51 antimicrobial effectiveness test, P. aeruginosa; format: cell-based, Pseudomonas aeruginosa; details: for CFU/mL: initial 2.9 × 10^5 CFU/mL, 22.5±2.5 °C; for Log Reduction: initial log10 5.5
# Experimental: (§1) As shown in WO2022236396A1, in order to assess the anti-microbial properties of ALPHA-1062, the USP (US Pharmacopeia) Chapter 51 Preservative Challenge Test (USP 51) was employed. The USP 51 is a common method used to gauge preservative effectiveness. Much like a Preservative Challenge Screen, it is used to evaluate the effect of preservatives in cosmetics, personal care products, and drug products. Preservatives are typically antimicrobial ingredients that are added to aqueous product formulations to help maintain the safety of the product by inhibiting the growth and reducing the number of microbial contaminants.
# (§2) In the context of the present invention, ALPHA-1062 (in the form of the gluconate salt) was assessed in place of (as) a preservative. No additional preservative was added to the ALPHA-1062 gluconate preparation, rather an anti-microbial effect of the agent itself (ALPHA-1062) was assessed. ALPHA-1062 is therefore the anti-microbial agent in the assay and experiments described below.
# (§3) The USP 51 challenge test utilizes 5 microorganisms (3 bacteria and 2 fungi) for challenge testing. Each of the microorganisms are known strains of pathogenic microorganisms and they represent a wide range of microbial physiologies.
# (§4) Cultures of the following microorganisms were applied, as per standard guidelines for USP 51: Candida albicans (ATCC No. 10231), Aspergillus brasiliensis (ATCC No. 16404), Escherichia coli (ATCC No. 8739), Pseudomonas aeruginosa (ATCC No. 9027), and Staphylococcus aureus (ATCC No. 6538). […]
# (§5) The initial concentration of viable microorganisms in each test preparation was estimated based on the concentration of microorganisms in each of the standardized inoculums, as determined by the plate-count method.
# (§6) The inoculated containers were incubated at 22.5±2.5 °C and each container was sampled at the appropriate intervals, as specified in Table 3. Any changes observed in the appearance of the culture was recorded at these intervals. By using the plate-count procedure, the number of CFU present in each test preparation was determined for the applicable intervals.
# (§7) An inactivator (neutralizer) of the specific antimicrobial was incorporated in the plate count or in the appropriate dilution prepared for plating. These conditions were determined in the validation study for that sample based upon the conditions of media and microbial recovery incubation times listed in Table 2. Using the calculated concentrations of CFU per mL present at the start of the test, the change in log 10 values of the concentration of CFU per mL for each microorganism was calculated at the applicable test intervals, and the changes were expressed in terms of log reductions.
# [2] = system: S. aureus ATCC 6538; experiment: USP 51 antimicrobial effectiveness test, S. aureus; format: cell-based, Staphylococcus aureus; details: for CFU/mL: initial 4.0 × 10^5 CFU/mL, 22.5±2.5 °C; for Log Reduction: initial log10 5.6
# Experimental: as §1, §2, §3, §4, §5, §6, §7
# [3] = system: all 5 organisms tested in the USP 51; experiment: USP 51 overall assessment against Category 2 criteria; format: cell-based; details: USP 51, Category 2 criteria, 14 and 28 days
# Experimental: as §1
# In the context of the present invention, ALPHA-1062 (in the form of the gluconate salt) was assessed in place of (as) a preservative. No additional preservative was added to the ALPHA-1062 gluconate preparation, rather an anti-microbial effect of the agent itself (ALPHA-1062) was assessed. […]
# as §5
# The inoculated containers were incubated at 22.5±2.5 °C and each container was sampled at the appropriate intervals, as specified in Table 3. Any changes observed in the appearance of the culture was recorded at these intervals. […]
# [4] = system: C. albicans ATCC 10231; experiment: USP 51 antimicrobial effectiveness test, C. albicans; format: cell-based, Candida albicans; details: for CFU/mL: initial 6.7 × 10^5 CFU/mL, 22.5±2.5 °C; for Log Reduction: initial log10 5.8
# Experimental: as §1, §2, §3, §4, §5, §6, §7
# [5] = system: E. coli ATCC 8739; experiment: USP 51 antimicrobial effectiveness test, E. coli; format: cell-based, Escherichia coli; details: for CFU/mL: initial 9.1 × 10^5 CFU/mL, 22.5±2.5 °C; for Log Reduction: initial log10 6.0
# Experimental: as §1, §2, §3, §4, §5, §6, §7
# [6] = system: A. brasiliensis ATCC 16404; experiment: USP 51 antimicrobial effectiveness test, A. brasiliensis; format: cell-based, Aspergillus brasiliensis; details: for CFU/mL: initial 2.2 × 10^5 CFU/mL, 22.5±2.5 °C; for Log Reduction: initial log10 5.3
# Experimental: as §1, §2, §3, §4, §5, §6, §7
# [7] = intra-nasal administration, similar doses; cited from earlier work
# [8] = Body weight / overt toxicity over the 35-day study; format: in vivo, male Wistar rats
# Excerpt: Young adult (2-3 months) male Wistar rats were subjected to a moderate TBI induced by controlled cortical impact (CCI). Animal models of TBI including the CCI model and functional tests have been described in detail in peer reviewed publications (Xiong et al., 2013, Nat Rev Neurosci.; Zhang et al., 2016, J Neurosurg.; Zhang et al., 2016, Neurochem Int.; Zhang et al., 2021, J Neurotrauma). Injury consisted of a single impact at 4.0 m/see, 2.5 mm deformation to the left parietal cortex. In addition, a group of animals was left healthy/not injured to serve as a healthy control.
# The animals were divided into 3 groups: • 1) TBI+Vehicle (purified water, n=10) • 2) TBI+ALPHA-1062 (4.5 mg/kg) (n=10) • 3) Healthy/not injured and not treated (Sham surgery) (n=10)
# The substance used in this study was ALPHA-1062 at 4.5 mg/kg. As control treatment (vehicle) purified water was administered intranasally (IN). The ALPHA-1062 and the control treatment were initiated 2 hours after injury and continued twice daily (with a 6-hour interval) for 35 consecutive days.
# Data were evaluated for normality applying the following statistical analyses: Data transformation was considered if the data was abnormal. The data was analyzed with GraphPad Prism Software 9.0. All data herein is presented as the mean±standard deviation (SD) and were analyzed with one-way analysis of variance (ANOVA) or two-way ANOVA (treatment x time) followed by post hoc Tukey's multiple comparison test (more than two groups). Differences between means are considered statistically significant when p is <0.05.
# [9] = system: mice after repeated blast mild traumatic brain injury (blast mTBI); experiment: Thermal Gradient Ring (TGR) assessment of heat/pain sensitivity after repetitive blast mTBI; format: in vivo, C57Bl/6 mice; details: after one month of treatment, 3.0 mg/kg
# [10] = 43% RH (RT); from WO 2022/150917; cited from earlier work
# [11] = Solid-state stability of Form A; format: physicochemical
# Experimental: As described therein, polymorphic studies were conducted with benzgalantamine utilizing a variety of solvents and crystallization conditions (Table 5 of WO 2022/150917) and subsequent XRPD analyses. Seven unique crystalline materials were observed and isolated, and were designated as Forms A, B, C, D and Materials E, F and G (FIG. 6 of WO 2022/150917). Amorphous material was also observed. Form A of benzgalantamine is an anhydrous crystalline material with concomitant melt/decomposition onset near 117 °C. […] Based upon WO 2022/150917, anhydrous Form A, stored under appropriate temperature and humidity conditions to maintain its Form and stability, appears best suited of the various benzgalantamine forms to be used in formulation and manufacture of drug products.
# As used herein, the term stable may relate to either chemical stability or to polymorph stability. Polymorph stability refers to the likelihood of a polymorph form remaining in its specific crystalline state under suitable storage conditions. For example, a stable polymorph form will maintain at least about 95% by weight, preferably at least about 98% by weight, and more preferably at least about 99% by weight or more of the crystalline form, in other words the form remains unchanged after storage under the indicated conditions for the indicated time.
# [12] = system: patients with chronic TBI; details: oral, cited from earlier work; for adverse effects: chronic TBI patients; for TBI-related symptoms: patient reported, not placebo controlled
# [13] = nausea, vomiting and diarrhea; Cochrane review 2006; cited from earlier work
# [14] = system: pre-clinical models; details: cited from earlier work
# [15] = system: microglial phagocytic activity; details: cited from earlier work
structure (smiles),measurement,setting,value
"COc1ccc2c3c1O[C@H]1C[C@@H](OC(=O)c4ccccc4)C=C[C@@]31CCN(C)C2 [ALPHA-1062 Gluconate, (4aS,6R,8aS)-4a,5,6,9,10,11,12-hexahydro-3-methoxy-11-methyl-6H-benzofuro[3a,3,2-ef][2]benzazepin-6-benzoate-gluconate salt]",CFU/mL,[1]; Day 14,<10 CFU/mL
same,Log Reduction,[1]; Day 14,4.5 Log
same,CFU/mL,[1]; Day 28,<10 CFU/mL
same,Log Reduction,[1]; Day 28,4.5 Log
same,CFU/mL,[2]; Day 14,<10 CFU/mL
same,Log Reduction,[2]; Day 14,4.6 Log
same,CFU/mL,[2]; Day 28,<10 CFU/mL
same,Log Reduction,[2]; Day 28,4.6 Log
same,anti-microbial effect,[3],strong anti-microbial effect against all 5 organisms tested in the USP 51
same,CFU/mL,[4]; Day 14,<10 CFU/mL
same,Log Reduction,[4]; Day 14,4.8 Log
same,CFU/mL,[4]; Day 28,<10 CFU/mL
same,Log Reduction,[4]; Day 28,4.8 Log
same,CFU/mL,[5]; Day 14,<10 CFU/mL
same,Log Reduction,[5]; Day 14,5.0 Log
same,CFU/mL,[5]; Day 28,<10 CFU/mL
same,Log Reduction,[5]; Day 28,5.0 Log
same,CFU/mL,[6]; Day 14,1.6 × 10^2 CFU/mL
same,Log Reduction,[6]; Day 14,3.1 Log
same,CFU/mL,[6]; Day 28,1.5 × 10^2 CFU/mL
same,Log Reduction,[6]; Day 28,3.1 Log
"COc1ccc2c3c1O[C@H]1C[C@@H](OC(=O)c4ccccc4)C=C[C@@]31CCN(C)C2 [ALPHA-1062, (4aS,6R,8aS)-5,6,9,10,11,12-hexahydro-3-methoxy-11-methyl-4aH-[1]benzofuro[3a,3,2-ef][2]benzazepin-6-ol benzoate]",bioavailability in the brain vs oral galantamine,[7],"higher bioavailability in the brain, than similar doses of oral galantamine"
same,overt toxicity vs vehicle animals,"[8]; 35 days, 4.5 mg/kg IN twice daily",did not show overt toxicity
same,body weight change vs day zero,[8]; days 1-7 (D1-7),significant body weight loss (p<0.05)
same,body weight change vs day zero,[8]; days 29-35 (D29-35),significant body weight gain
same,body weight vs vehicle treated or untreated animals,"[8]; each time point D0-D35, 4.5 mg/kg IN twice daily, FIG. 10",no significant alterations in body weight compared to vehicle treated or untreated animals
same,persistence of structural/functional benefit following removal of drug treatment,[9],at least 2 months
COc1ccc2c3c1O[C@H]1C[C@@H](OC(=O)c4ccccc4)C=C[C@@]31CCN(C)C2.O=C(O)C(O)C(O)C(O)C(O)CO [Form A],duration for which Form A was sustained,[10],up to 5 days
same,kinetic stability in the solid state,[10],kinetically stable in the solid state
same,chemical stability,[11]; appropriate storage conditions,good chemical stability
same,polymorph stability on storage,"[11]; room temperature, at or under about 43% RH or less than 0.12 aw, multiple months",good stability
COc1cc2c(cc1OC)C(=O)C(CC1CCN(Cc3ccccc3)CC1)C2 (centres unmarked) [donepezil],adverse effects,[12],about half of all patients experienced disturbing adverse effects
same,TBI-related symptoms,[12],subjective improvement of TBI-related symptoms
COc1ccc2c3c1O[C@H]1C[C@@H](O)C=C[C@@]31CCN(C)C2 [galantamine],gastro-intestinal (GI) side effects,[13],clinically significant level of mechanism-based gastro-intestinal (GI) side effects
same,adverse effects,[12],about half of all patients experienced disturbing adverse effects
same,TBI-related symptoms,[12],subjective improvement of TBI-related symptoms
same,pre-clinical effects,[14]; active metabolite of benzgalantamine,"increase cholinergic activation, reduce neuroinflammation, improve blood-brain barrier function, activate cell survival signalling pathways as well as increase neurogenesis"
same,glutamate and beta-amyloid toxicity,[14],decrease both glutamate and beta-amyloid toxicity
same,microglial phagocytic activity,[15],activation of microglial phagocytic activity
CCN(C)C(=O)Oc1cccc([C@H](C)N(C)C)c1 [rivastigmine],adverse effects,[12],about half of all patients experienced disturbing adverse effects
same,TBI-related symptoms,[12],subjective improvement of TBI-related symptoms
